Results reported in ChEMBL document CHEMBL1151982, “Natural products as tools for neuroscience: discovery and development of novel agents to treat drug abuse” (J Nat Prod, 2009).

Legend:
Assay type in all cases: functional
[1] = biological target: T1, Kappa-type opioid receptor (Homo sapiens, UniProt P41145); assay: Antagonist activity at kappa opioid receptor by [35S]GTPgammaS binding assay
[2] = biological target: T1, Kappa-type opioid receptor; assay: Agonist activity at kappa opioid receptor by [35S]GTPgammaS binding assay
[3] = biological target: T1, Kappa-type opioid receptor; assay: Agonist activity at kappa opioid receptor by [35S]GTPgammaS binding assay relative to (-)-U50,488H

T1 sequence (P41145 whole entry): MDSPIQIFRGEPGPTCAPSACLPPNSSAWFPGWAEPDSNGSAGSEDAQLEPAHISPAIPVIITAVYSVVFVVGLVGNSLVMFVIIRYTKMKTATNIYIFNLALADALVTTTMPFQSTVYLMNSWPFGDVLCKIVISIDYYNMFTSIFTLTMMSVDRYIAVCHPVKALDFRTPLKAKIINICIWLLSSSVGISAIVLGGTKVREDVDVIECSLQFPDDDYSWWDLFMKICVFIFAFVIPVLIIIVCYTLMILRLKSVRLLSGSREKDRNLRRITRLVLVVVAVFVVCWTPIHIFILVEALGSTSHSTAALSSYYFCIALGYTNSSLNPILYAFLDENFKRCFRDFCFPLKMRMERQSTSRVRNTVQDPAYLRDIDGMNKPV

With `COC(=O)[C@@H]1C[C@H](OC(C)=O)C(=O)[C@@H]2[C@@]3(C)C[C@@H]([C@]4(O)[C@@H](OC)O[C@@H](OC)[C@H]4O)CC(=O)[C@@H]3CC[C@]21C` [SALVINICIN B] the Ki [1] was > 1.9 µM.
With `COC(=O)[C@@H]1C[C@H](OC(C)=O)C(=O)[C@H]2[C@@]1(C)CC[C@H]1C(=O)O[C@H]([C@]3(O)[C@H](OC)O[C@H](OC)[C@H]3O)C[C@]21C` [SALVINICIN A] the EC50 [2] was 4.1 µM and the Emax [3] was 80%.
